# Results reported in ChEMBL document CHEMBL1131794, “The synthesis and evaluation of 6-alkylidene-2'beta-substituted penam sulfones as beta-lactamase inhibitors” (Bioorg Med Chem Lett, 1999).
# Experiments:
# Beta-lactamase TEM = Beta-lactamase TEM (Escherichia coli, UniProt P62593); experiment: Inhibitory activity against serine Beta-lactamase TEM derived from […]; type: single protein
# Beta-lactamase [1] = target: T1, Beta-lactamase (Staphylococcus aureus, UniProt P00807); experiment: Inhibitory activity against serine beta-lactamase, PC1 (class A) derived from Staphylococcus aureus
# T1 sequence (P00807 whole entry): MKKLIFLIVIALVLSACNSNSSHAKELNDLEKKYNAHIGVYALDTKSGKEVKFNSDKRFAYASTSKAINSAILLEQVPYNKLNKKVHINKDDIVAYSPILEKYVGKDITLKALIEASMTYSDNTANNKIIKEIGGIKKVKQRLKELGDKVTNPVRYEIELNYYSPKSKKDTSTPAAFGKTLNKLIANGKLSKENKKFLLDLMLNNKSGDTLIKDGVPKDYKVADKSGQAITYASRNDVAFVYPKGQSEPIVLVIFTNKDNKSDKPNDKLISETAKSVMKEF
# Beta-lactamase [2] = target: T1, Beta-lactamase; experiment: Inhibitory activity against serine Beta-lactamase derived from Staphylococcus aureus
# Escherichia coli [3] = experiment: In vitro synergistic activity against Escherichia coli C600N + (ampR ampC); type: functional; further: test concentration or dose not given here
# Klebsiella pneumoniae [4] = experiment: In vitro synergistic activity against Klebsiella pneumoniae GC 6269 clinical isolate; type: functional; further: test concentration or dose not given here
# Pseudomonas aeruginosa = experiment: In vitro synergistic activity against Pseudomonas aeruginosa Ps505A1 (AmpC derepressed); type: functional
# Escherichia coli [5] = experiment: In vitro synergistic activity against Escherichia coli C600N + (SHV-1); type: functional
# Klebsiella pneumoniae [6] = experiment: In vitro synergistic activity against Klebsiella pneumoniae KC2 (TEM-10); type: functional
# Escherichia coli [7] = experiment: In vitro synergistic activity against Escherichia coli 4100 + (CCRA); type: functional
# Enterobacter cloacae [8] = experiment: In vitro synergistic activity against Enterobacter cloacae (Imi-1+AmpC); type: functional
# Escherichia coli [9] = experiment: In vitro synergistic activity against Escherichia coli ATCC 25922 (no beta-lactamase); type: functional; further: test concentration or dose not given here
# Escherichia coli [10] = experiment: In vitro synergistic activity against Escherichia coli 4100 (no beta-lactamase); type: functional
# Escherichia coli [11] = experiment: In vitro synergistic activity against Escherichia coli C600N + (PSE-1); type: functional
# Serratia marcescens = experiment: In vitro synergistic activity against Serratia marcescens GC 4132 (Amp C); type: functional; further: test concentration or dose not given here
# Escherichia coli [12] = experiment: In vitro synergistic activity against Escherichia coli C600N + (L1); type: functional
# Escherichia coli [13] = experiment: In vitro synergistic activity against Escherichia coli 300 + (ampR ampC); type: functional; further: test concentration or dose not given here
# Escherichia coli [14] = experiment: In vitro synergistic activity against Escherichia coli 300 + (TEM-1); type: functional
# [15] = test system: Stenotrophomonas maltophilia; experiment: In vitro synergistic activity against Stenotrophomonas maltophilia 1712(L1); type: functional; further: test concentration or dose not given here
# Escherichia coli [16] = experiment: In vitro synergistic activity against Escherichia coli C600N + (P99); type: functional
# Enterobacter cloacae [17] = experiment: In vitro synergistic activity against Enterobacter cloacae SC12629 (AmpC inducible); type: functional; further: test concentration or dose not given here
# Escherichia coli [18] = experiment: In vitro synergistic activity against Escherichia coli C600N + (Sme-1); type: functional
# Aeromonas sobria = experiment: In vitro synergistic activity against Aeromonas sobria (Asb A, OXA-12, Asb M); type: functional; further: test concentration or dose not given here
# Escherichia coli [19] = experiment: In vitro synergistic activity against Escherichia coli C600N + (TEM-10); type: functional
# Escherichia coli [20] = experiment: In vitro synergistic activity against Escherichia coli C600N + (IRT-2); type: functional; further: test concentration or dose not given here
# Escherichia coli [21] = experiment: In vitro synergistic activity against Escherichia coli GC6267 clinical isolate; type: functional
# Klebsiella pneumoniae [22] = experiment: In vitro synergistic activity against Klebsiella pneumoniae (ACT-1 + 3 blas, IPM=S); type: functional; further: test concentration or dose not given here
# Escherichia coli [23] = experiment: In vitro synergistic activity against Escherichia coli C600N + (SHV-4); type: functional
# Escherichia coli [24] = experiment: In vitro synergistic activity against Escherichia coli C600N + (OXA-10) {PSE-2}; type: functional
# Escherichia coli [25] = experiment: In vitro synergistic activity against Escherichia coli ATCC 35218 (TEM-1); type: functional
# Klebsiella aerogenes = experiment: In vitro synergistic activity against Enterobacter aerogenes GC 6268 clinical isolate; type: functional; further: test concentration or dose not given here
# Escherichia coli [26] = experiment: In vitro synergistic activity against Escherichia coli GC6265 (TEM-1); type: functional
# Escherichia coli [27] = experiment: In vitro synergistic activity against Escherichia coli C600N (no beta-lactamase); type: functional
# Escherichia coli [28] = experiment: In vitro synergistic activity against Escherichia coli C600N + (TEM-1); type: functional
# Escherichia coli [29] = experiment: In vitro synergistic activity against Escherichia coli GC 6266 clinical isolate; type: functional
# Escherichia coli [30] = experiment: In vitro synergistic activity against Escherichia coli C600N + (MIR-1); type: functional
# Staphylococcus aureus = experiment: In vitro synergistic activity against Staphylococcus aureus (PC1); type: functional; further: test concentration or dose not given here
# Escherichia coli [31] = experiment: In vitro synergistic activity against Escherichia coli C600N + (Imi-1); type: functional
# Escherichia coli [32] = experiment: In vitro synergistic activity against Escherichia coli 300 (no beta-lactamase, imp mutant); type: functional
# Sequence of Beta-lactamase TEM (P62593 whole entry): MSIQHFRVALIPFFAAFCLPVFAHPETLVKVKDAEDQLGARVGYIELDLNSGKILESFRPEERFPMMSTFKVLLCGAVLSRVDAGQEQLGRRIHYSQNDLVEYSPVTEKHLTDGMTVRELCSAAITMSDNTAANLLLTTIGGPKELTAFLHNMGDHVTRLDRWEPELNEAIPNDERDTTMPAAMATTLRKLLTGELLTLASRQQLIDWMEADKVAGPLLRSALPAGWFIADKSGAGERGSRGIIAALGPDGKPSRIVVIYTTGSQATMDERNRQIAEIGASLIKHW
Compound,IC50 (Beta-lactamase TEM) [nM],IC50 (Beta-lactamase [1]) [nM],IC50 (Beta-lactamase [2]) [nM],MIC (Escherichia coli [3]) [µg/mL],MIC (Klebsiella pneumoniae [4]) [µg/mL],MIC (Pseudomonas aeruginosa) [µg/mL],MIC (Klebsiella pneumoniae [6]) [µg/mL],MIC (Escherichia coli [7]) [µg/mL],MIC (Enterobacter cloacae [8]) [µg/mL],MIC (Escherichia coli [9]) [µg/mL],MIC (Escherichia coli [10]) [µg/mL],MIC (Escherichia coli [11]) [µg/mL],MIC (Serratia marcescens) [µg/mL],MIC (Escherichia coli [12]) [µg/mL],MIC (Escherichia coli [13]) [µg/mL],MIC (Escherichia coli [14]) [µg/mL],MIC [15] [µg/mL],MIC (Escherichia coli [16]) [µg/mL],MIC (Enterobacter cloacae [17]) [µg/mL],MIC (Escherichia coli [18]) [µg/mL],other results
C[C@]1(COC(=O)Cc2ccccc2)[C@H](C(=O)O)N2C(=O)/C(=C/C(=O)O)C2S1(=O)=O (stereo partly drawn),15.4,579000,540,–,–,–,–,–,–,–,–,–,–,–,–,–,–,–,–,–,–
COC(=O)/C=C1/C(=O)N2C1S(=O)(=O)[C@@](C)(CCl)[C@@H]2C(=O)O (stereo partly drawn),–,432000,13900,–,–,–,–,–,–,–,–,–,–,–,–,–,–,–,–,–,–
Cn1nnnc1SCC(=O)OC[C@@]1(C)[C@H](C(=O)O)N2C(=O)/C(=C/C(=O)O)C2S1(=O)=O (stereo partly drawn),233,–,640,–,–,–,–,–,–,–,–,–,–,–,–,–,–,–,–,–,–
CC(=O)OC[C@@]1(C)[C@H](C(=O)O)N2C(=O)/C(=C/c3ccccn3)C2S1(=O)=O (stereo partly drawn),4,660,62,–,–,–,–,–,–,–,–,–,–,–,–,–,–,–,–,–,–
C[C@]1(COC(=O)Cc2ccccc2)[C@H](C(=O)O)N2C(=O)/C(=C/c3ccccn3)C2S1(=O)=O (stereo partly drawn),40,390,1,–,–,–,–,–,–,–,–,–,–,–,–,–,–,–,–,–,–
CCN1CCN(C(=O)NC(C(=O)N[C@@H]2C(=O)N3[C@@H]2SC(C)(C)[C@@H]3C(=O)[O-])c2ccccc2)C(=O)C1=O.C[C@]1(Cn2ccnn2)C(C(=O)[O-])N2C(=O)C[C@H]2S1(=O)=O.[Na+].[Na+] (stereo partly drawn),–,–,–,8,8,16,2,> 64,16,2,< 0.06,1,32,> 64,4,4,> 64,8,> 64,8,MIC (Escherichia coli [5]): 2 µg/mL; MIC (Aeromonas sobria): 64 µg/mL; MIC (Escherichia coli [19]): 2 µg/mL; MIC (Escherichia coli [20]): 8 µg/mL; MIC (Escherichia coli [21]): 16 µg/mL; MIC (Klebsiella pneumoniae [22]): 32 µg/mL; MIC (Escherichia coli [23]): 2 µg/mL; MIC (Escherichia coli [24]): 2 µg/mL; MIC (Escherichia coli [25]): 1 µg/mL; MIC (Klebsiella aerogenes): 32 µg/mL; MIC (Escherichia coli [26]): 4 µg/mL; MIC (Escherichia coli [27]): 2 µg/mL; MIC (Escherichia coli [28]): 4 µg/mL; MIC (Escherichia coli [29]): 16 µg/mL; MIC (Escherichia coli [30]): 8 µg/mL; MIC (Staphylococcus aureus): 1 µg/mL; MIC (Escherichia coli [31]): 16 µg/mL
C[C@]1(COC(=O)Cc2ccc(O)c(O)c2)[C@H](C(=O)[O-])N2C(=O)/C(=C/c3ccccn3)C2S1(=O)=O.[Na+] (stereo partly drawn),60,700,26,> 64,> 64,> 64,> 64,> 64,> 64,> 64,> 64,> 64,> 64,> 64,> 64,> 64,> 64,> 64,> 64,> 64,MIC (Aeromonas sobria): > 64 µg/mL; MIC (Escherichia coli [20]): > 64 µg/mL; MIC (Escherichia coli [21]): > 64 µg/mL; MIC (Klebsiella pneumoniae [22]): > 64 µg/mL; MIC (Escherichia coli [25]): > 64 µg/mL; MIC (Klebsiella aerogenes): > 64 µg/mL; MIC (Escherichia coli [26]): > 64 µg/mL; MIC (Escherichia coli [29]): > 64 µg/mL; MIC (Escherichia coli [30]): > 64 µg/mL; MIC (Staphylococcus aureus): > 64 µg/mL; MIC (Escherichia coli [31]): > 64 µg/mL
CC(=O)OC[C@@]1(C)[C@H](C(=O)O)N2C(=O)/C(=C/C(N)=O)C2S1(=O)=O (stereo partly drawn),310,2210,8480,–,–,–,–,–,–,–,–,–,–,–,–,–,–,–,–,–,–
C[C@]1(COC(=O)Cc2ccc(O)c(O)c2)[C@H](C(=O)O)N2C(=O)/C(=C/C(=O)O)C2S1(=O)=O (stereo partly drawn),–,116000,370,–,–,–,–,–,–,–,–,–,–,–,–,–,–,–,–,–,–
CCN1CCN(C(=O)NC(C(=O)N[C@@H]2C(=O)N3[C@@H]2SC(C)(C)[C@@H]3C(=O)[O-])c2ccccc2)C(=O)C1=O.C[C@]1(COC(=O)Cc2ccc(O)c(O)c2)[C@H](C(=O)[O-])N2C(=O)/C(=C/c3ccccn3)C2S1(=O)=O.[Na+].[Na+] (stereo partly drawn),–,–,–,16,8,2,4,> 64,16,1,< 0.06,2,4,64,2,1,> 64,16,64,8,MIC (Escherichia coli [5]): 2 µg/mL; MIC (Aeromonas sobria): 1 µg/mL; MIC (Escherichia coli [19]): 2 µg/mL; MIC (Escherichia coli [20]): 2 µg/mL; MIC (Escherichia coli [32]): < 0.006 µg/mL; MIC (Escherichia coli [21]): 16 µg/mL; MIC (Klebsiella pneumoniae [22]): 32 µg/mL; MIC (Escherichia coli [23]): 2 µg/mL; MIC (Escherichia coli [24]): 2 µg/mL; MIC (Escherichia coli [25]): 1 µg/mL; MIC (Klebsiella aerogenes): 64 µg/mL; MIC (Escherichia coli [26]): 4 µg/mL; MIC (Escherichia coli [27]): 1 µg/mL; MIC (Escherichia coli [28]): 2 µg/mL; MIC (Escherichia coli [29]): 16 µg/mL; MIC (Escherichia coli [30]): 8 µg/mL; MIC (Staphylococcus aureus): 1 µg/mL; MIC (Escherichia coli [31]): 8 µg/mL
